These results are taken from ChEMBL document CHEMBL6083198, “Rational design of a high-affinity fluorescent probe for visualizing monitoring the amyloid β clearance effect of anti-Alzheimer's disease drug candidates” (Eur J Med Chem, 2024).

Active and inactive are the calls of the source. The calls are words filed in the database; no cut-off is given here.

In data set [1] the target is T1, Amyloid-beta precursor protein (Homo sapiens, UniProt P05067). As to the kind of experiment: Binding affinity to amyloid beta (unknown origin) assessed as dissociation constant.
T1 sequence (P05067 whole entry): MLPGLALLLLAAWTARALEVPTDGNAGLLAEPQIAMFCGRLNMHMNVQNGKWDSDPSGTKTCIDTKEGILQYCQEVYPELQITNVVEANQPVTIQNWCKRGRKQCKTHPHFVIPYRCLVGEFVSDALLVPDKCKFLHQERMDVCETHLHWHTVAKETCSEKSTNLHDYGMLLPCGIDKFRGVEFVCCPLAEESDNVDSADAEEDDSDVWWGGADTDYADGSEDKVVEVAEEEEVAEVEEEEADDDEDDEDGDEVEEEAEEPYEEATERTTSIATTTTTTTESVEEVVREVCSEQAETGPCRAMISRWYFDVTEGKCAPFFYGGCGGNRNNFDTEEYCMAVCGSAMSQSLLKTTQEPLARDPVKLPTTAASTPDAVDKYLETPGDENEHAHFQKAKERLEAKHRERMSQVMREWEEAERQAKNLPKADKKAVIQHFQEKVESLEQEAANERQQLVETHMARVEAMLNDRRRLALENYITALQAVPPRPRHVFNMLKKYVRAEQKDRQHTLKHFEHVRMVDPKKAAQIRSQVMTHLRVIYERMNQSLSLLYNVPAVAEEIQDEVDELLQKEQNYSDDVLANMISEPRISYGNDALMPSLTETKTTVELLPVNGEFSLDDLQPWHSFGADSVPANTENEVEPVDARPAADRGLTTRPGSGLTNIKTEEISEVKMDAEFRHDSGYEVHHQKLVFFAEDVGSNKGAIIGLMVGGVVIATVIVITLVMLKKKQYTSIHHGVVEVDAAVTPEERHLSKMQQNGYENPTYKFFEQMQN
The test system of data set [2] is Caenorhabditis elegans. As to the kind of experiment: Anti-alzheimer activity against heat-induced Caenorhabditis elegans CL4176 AD paralysis model assessed as reduction in amyloid-beta deposition at 100 to 200 uM. It is filed as functional, organism-based. The settings on record: dose 100-200 µM, time 5.0 day.
Data set [3] addresses T1, Amyloid-beta precursor protein. As to the kind of experiment: Inhibition of amyloid beta aggregation in amyloid beta-induced human SH-SY5Y cells assessed as reduction in fluorescence intensity at 2 to 20 uM incubated for 24 hrs by Western blot analysis. Format: cell-based. Conditions: dose 2-20 µM.
Data set [4] concerns SH-SY5Y. As to the kind of experiment: Neuroprotective activity against amyloid beta-induced toxicity in human SH-SY5Y cells assessed as reduction in fluorescence intensity at 10 uM incubated for 24 hrs by immunofluorescence staining based analysis. It is filed as functional, cell-based.
Data set [5] concerns Caenorhabditis elegans. As to the kind of experiment: Anti-alzheimer activity against heat-induced Caenorhabditis elegans CL4176 AD paralysis model assessed as reduction in amyloid-beta deposition measured after 5 days by ThS staining based fluorescence assay. It is filed as functional, organism-based. The settings on record: dose 100-200 µM, time 5.0 day.
Data set [6] relates to SH-SY5Y. As to the kind of experiment: Neuroprotective activity against amyloid beta-induced toxicity in human SH-SY5Y cells assessed as reduction in fluorescence intensity at 2 uM incubated for 24 hrs by immunofluorescence staining based analysis. It is filed as functional, cell-based.
For data set [7], the system named is Caenorhabditis elegans. As to the kind of experiment: Anti-alzheimer activity against heat-induced Caenorhabditis elegans CL2006 AD paralysis model assessed as reduction in amyloid-beta deposition at 200 uM measured after 5 days by ThS staining based fluorescence assay. Conditions: time 5.0 day. Format: functional, organism-based.
Data set [8] concerns the target T1, Amyloid-beta precursor protein. As to the kind of experiment: Binding affinity to amyloid beta plaques 1 to 42 (unknown origin) assessed as dissociation constant.
The species named for data set [9] is Homo sapiens. As to the kind of experiment: (§1) Binding affinity to amyloid beta fibril (unknown origin) assessed as dissociation constant.
The nature of data set [10]: as §1. Set-up: species or system Homo sapiens.
Data set [11] in a line: Fluorescence property of compound in DCM assessed as fluorescence quantum yield. Format: physicochemical.
Data set [12] is filed under the species Mus musculus. As to the kind of experiment: Binding affinity to amyloid beta plaques in 12 month old male APP/PS1 transgenic mouse model assessed as colocalization of amyloid beta plaques in brain at 100 uM incubated for 30 min by ab205240 staining based immunohistofluorescence assay. Format: tissue-based. The settings on record: time 12.0 months.
The subject of data set [13] is U-87 MG. As to the kind of experiment: Cytotoxicity against human U-87 MG cells at 100 uM incubated for 24 hrs. It is filed as toxicity, cell-based. The settings on record: u-87mg atcc.
The species named for data set [14] is Mus musculus. As to the kind of experiment: Binding affinity to amyloid beta plaques in 12 month old male APP/PS1mouse brain cerebral cortex by light-sheet microscopy. The settings on record: time 12.0 months. It is filed as tissue-based.
Data set [15] is described as follows: Binding affinity to cellulase (unknown origin) at 0.05 mg/ml by fluorescence analysis.
The species entered for data set [16] is Mus musculus. As to the kind of experiment: Binding affinity to amyloid beta plaques in 12 month old male APP/PS1 transgenic mouse model assessed as signal to noise ratio in brain slice at 100 uM incubated for 30 min by confocal microscopic analysis. Format: tissue-based. Conditions: time 12.0 months.
Data set [17] can be described thus: Photostability of compound under continuous light irradiation. Format: physicochemical.
Data set [18] deals with Trypsin (Homo sapiens) (UniProt P07477+P07478+P35030). As to the kind of experiment: Binding affinity to trypsin (unknown origin) at 0.05 mg/ml by fluorescence analysis. It is filed as protein assay.
The species named for data set [19] is Homo sapiens. As to the kind of experiment: Binding affinity to lysozyme (unknown origin) at 0.05 mg/ml by fluorescence analysis.
The target of data set [20] is T1, Amyloid-beta precursor protein. As to the kind of experiment: Binding affinity to amyloid beta oligomers (unknown origin) at 5 uM by fluorescence analysis.
The species entered for data set [21] is Homo sapiens. As to the kind of experiment: Binding affinity to amyloid beta fibril (unknown origin) at 0.025 mg/ml by fluorescence analysis.
Data set [22] is filed under the species Homo sapiens. As to the kind of experiment: Binding affinity to amyloid beta monomer (unknown origin) assessed as dissociation constant.
The nature of data set [23]: Stability of compound at pH 2 to 10 in presence of Amyloid beta. It is filed as physicochemical. Conditions: buffer.
Data set [24] is filed under the species Homo sapiens. As to the kind of experiment: Binding affinity to phosphoesterase (unknown origin) at 0.05 mg/ml by fluorescence analysis.
The species named for data set [25] is Homo sapiens. As to the kind of experiment: Binding affinity to pepsin (unknown origin) at 0.05 mg/ml by fluorescence analysis.
Data set [26] deals with SH-SY5Y. As to the kind of experiment: Cytotoxicity against human SH-SY5Y cells at 100 uM incubated for 24 hrs. It is filed as toxicity, cell-based.
A short description of data set [27]: Binding affinity to amyloid beta oligomer (unknown origin) assessed as dissociation constant. Also on record: species or system Homo sapiens.
Data set [28] concerns the target Albumin (Bos taurus, UniProt P02769). As to the kind of experiment: Binding affinity to bovine serum albumin (unknown origin) at 0.05 mg/ml by fluorescence analysis. Conditions: cattle.
Data set [29] can be described thus: Fluorescence property of compound in aqueous solution assessed as fluorescence quantum yield. The settings on record: buffer. Format: physicochemical.

Albumin, sequence (P02769 whole entry): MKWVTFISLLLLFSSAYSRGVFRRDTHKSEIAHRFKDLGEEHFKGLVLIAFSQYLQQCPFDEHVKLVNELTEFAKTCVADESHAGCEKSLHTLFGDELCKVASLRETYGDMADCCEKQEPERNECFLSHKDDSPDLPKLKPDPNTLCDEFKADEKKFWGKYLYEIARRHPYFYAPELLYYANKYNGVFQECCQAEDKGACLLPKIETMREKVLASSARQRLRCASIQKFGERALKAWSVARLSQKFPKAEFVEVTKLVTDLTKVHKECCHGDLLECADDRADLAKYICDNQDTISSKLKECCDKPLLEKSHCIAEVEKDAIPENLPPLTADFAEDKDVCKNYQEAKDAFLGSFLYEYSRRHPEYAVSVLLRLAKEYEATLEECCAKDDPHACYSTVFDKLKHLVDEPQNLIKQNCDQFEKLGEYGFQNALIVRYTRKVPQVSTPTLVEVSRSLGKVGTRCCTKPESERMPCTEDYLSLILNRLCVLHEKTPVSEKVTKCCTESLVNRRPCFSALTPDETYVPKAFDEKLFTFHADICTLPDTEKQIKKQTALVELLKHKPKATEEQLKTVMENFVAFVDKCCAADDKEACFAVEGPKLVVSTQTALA

Consider `CN(C)c1ccc(/C=C/C=C/C=C(C#N)C#N)s1`, for which the Kd in [1] was found to be 117 nM.

On to `COCCOCCOC(=O)CCN1C(=O)/C(=C/c2ccc3c(c2)Sc2ccccc2N3C)SC1=S`, for which the Kd in data set [1] was 28.2 nM.

With `CN(C)c1ccc2cc(/C=C/c3ccc4ccccc4[n+]3C)c(=O)oc2c1`, the Kd in data set [1] is 86 nM.

With `CC(=O)Oc1ccccc1C(=O)Nc1ncc([N+](=O)[O-])s1`, the result in data set [2], in [3] and in data set [4] was Active. The Activity result in [5] is “Dose-dependent-effect”.

For the compound `CN(C)c1ccc2cc3c(cc2c1)OCC(C=C(C#N)C#N)=C3`, in data set [1], the dissociation constant Kd was determined as 44.8 nM.

For `CC(=O)Oc1cccc(C(=O)Nc2ncc(N3CCOCC3)s2)c1`, the outcome in data set [6], in data set [2] and in data set [3] was Active. The result in data set [7] was inactive. Also, the Activity result in [5] is “Dose-dependent-effect”.

As for `CN(C)c1ccc(-c2ccc(/C=C/C3CC(=C(C#N)C#N)c4ccccc4N3CCCS(=O)(=O)O)s2)cc1` (configuration not stated), the Kd in data set [1] stood at 170 nM.

For the compound `COCCOCCn1c2ccccc2c2cc(CCc3cc[n+](C)c4ccccc34)ccc21`, the Kd in data set [1] amounted to 13.1 nM.

Consider `Cc1cc(/C=C/c2ccc(N(C)C)s2)n2c1C(CCCN1CCNc3ccccc31)=C1C=CC=[N+]1[B-]2(F)F`, for which the dissociation constant Kd in [8] was 27 nM.

As for `CN(C)c1ccc(/C=C/c2ccc3cc(C#N)c(=O)oc3c2)cc1`, the outcome in data set [9], in data set [12], in data set [14], in data set [16], in data set [20] and in data set [21] was Active. Further, the dissociation constant (Kd) in [10] came out at 66.7 nM; in [27], 81.5 nM. Further, the Activity in data set [11] was 0.3; in data set [13], “Non-toxic”; in data set [26] it was “Non-toxic”; in data set [28] it was “Not_active”. Further, the result in [15], in data set [18], in [19], in [22], in data set [24] and in [25] was inactive. Besides, the Stability entry in data set [17] and in data set [23] was “Stable” each time.

In the case of `O=c1c(O)c(-c2ccc(O)c(O)c2)oc2cc(O)cc(O)c12`, in [5], the Activity result is “Dose-dependent-effect”.

For `CCN(CC)c1ccc(/C=C/C2=[O+][B-](F)(F)OC(/C=C/c3ccc(N(CC)CC)nc3)=C2CCCOc2c(C)cccc2C)cc1`, the dissociation constant (Kd) in data set [8] was 506 nM.

For the compound `CCCN1/C(=C/C=C2\CCCC(C=C(C#N)C#N)=C2Cl)C(C)(C)c2ccccc21`, the dissociation constant (Kd) in data set [8] worked out at 59.1 nM.

Regarding `CN(C)c1ccc(/C=C/C=C(C#N)/C=C/C(C#N)=C/C=C/C=C/c2ccc(N(C)C)cc2)cc1`, in data set [8], the dissociation constant (Kd) was 1.04 nM.

Take `CN(C)c1ccc(-c2ccc3cc(C#N)c(=N)oc3c2)cc1`: in data set [29], the Activity stood at 0.027. The Kd in data set [1] came out at 548 nM.
